Test results published in patent publication US12077503B2, “Substituted cyclic amides and their use as herbicides” (FMC CORPORATION, priority 2015, dated 2024).
Read-outs that look alike come from different tables or passages of the source.

Tests used:
Type in all cases: in vivo
[1] = tested on: ragweed (common ragweed, Ambrosia elatior); assay: Test A postemergence; settings: Ambrosia artemisiifolia, post-emergence, 240 h; for pest or weed control at 125 g/ha: 125 g ai/ha, visual injury vs untreated controls after approx. 10 d, 0 = no effect, 100 = complete control, read-out: Ragweed plant response rating (0 to 100 scale); for pest or weed control at 500 g/ha: 500 g ai/ha
Method in brief: (§1)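 Seeds sprayed preemergence with a directed soil spray, or plants at 2 to 10 cm height and one- to two-leaf stage sprayed postemergence, with test chemicals in a non-phytotoxic solvent mixture containing surfactant, in loam soil–sand blend. Injury rated visually against untreated controls after about 10 d in greenhouse, 0 (no effect) to 100 (complete control).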

[2] = tested on: pigweed (Amaranthus retroflexus); assay: Test A postemergence; settings: Amaranthus retroflexus, post-emergence, 240 h; for pest or weed control at 125 g/ha: 125 g ai/ha, visual injury vs untreated controls after approx. 10 d, 0 = no effect, 100 = complete control, read-out: Pigweed plant response rating (0 to 100 scale); for pest or weed control at 500 g/ha: 500 g ai/ha
Method in brief: as §1

[3] = tested on: ryegrass, Italian (Italian ryegrass, Lolium multiflorum); assay: Test A postemergence; settings: Lolium multiflorum, post-emergence, 240 h; for pest or weed control at 125 g/ha: 125 g ai/ha, visual injury vs untreated controls after approx. 10 d, 0 = no effect, 100 = complete control, read-out: Ryegrass, Italian plant response rating (0 to 100 scale); for pest or weed control at 500 g/ha: 500 g ai/ha
Method in brief: as §1

corn (Zea mays) = assay: Test A postemergence; settings: Zea mays, post-emergence, 240 h; for plant injury at 125 g/ha: 125 g ai/ha, visual injury vs untreated controls after approx. 10 d, 0 = no effect, 100 = complete control, read-out: Corn plant response rating (0 to 100 scale)
Method in brief: as §1

[4] = tested on: giant foxtail (Setaria faberii); assay: Test A postemergence; settings: Setaria faberi, post-emergence, 240 h; for pest or weed control at 125 g/ha: 125 g ai/ha, visual injury vs untreated controls after approx. 10 d, 0 = no effect, 100 = complete control, read-out: Foxtail, Giant plant response rating (0 to 100 scale); for pest or weed control at 500 g/ha: 500 g ai/ha
Method in brief: as §1

[5] = tested on: blackgrass (Alopecurus myosuroides); assay: Test A postemergence; settings: Alopecurus myosuroides, post-emergence, 240 h; for pest or weed control at 125 g/ha: 125 g ai/ha, visual injury vs untreated controls after approx. 10 d, 0 = no effect, 100 = complete control, read-out: Blackgrass plant response rating (0 to 100 scale); for pest or weed control at 500 g/ha: 500 g ai/ha
Method in brief: as §1

[6] = tested on: barnyardgrass (Echinochloa crus-galli); assay: Test A postemergence; settings: Echinochloa crus-galli, post-emergence, 240 h; for pest or weed control at 125 g/ha: 125 g ai/ha, visual injury vs untreated controls after approx. 10 d, 0 = no effect, 100 = complete control, read-out: Barnyardgrass plant response rating (0 to 100 scale); for pest or weed control at 500 g/ha: 500 g ai/ha
Method in brief: as §1

Kochia (Kochia scoparia) [7] = assay: Test A postemergence; settings: Bassia scoparia, post-emergence, 240 h; for pest or weed control at 125 g/ha: 125 g ai/ha, visual injury vs untreated controls after approx. 10 d, 0 = no effect, 100 = complete control, read-out: Kochia plant response rating (0 to 100 scale); for pest or weed control at 500 g/ha: 500 g ai/ha
Method in brief: as §1

[8] = tested on: wheat (Triticum aestivum); assay: Test A postemergence; settings: Triticum aestivum, post-emergence, 240 h; for plant injury at 125 g/ha: 125 g ai/ha, postemergence, visual injury vs untreated controls after approx. 10 d, 0 = no effect, 100 = complete control, read-out: Wheat plant response rating (0 to 100 scale)
Method in brief: as §1

[9] = tested on: Galium (catchweed bedstraw, Galium aparine); assay: Test A postemergence; settings: Galium, post-emergence, 240 h; for pest or weed control at 125 g/ha: 125 g ai/ha, visual injury vs untreated controls after approx. 10 d, 0 = no effect, 100 = complete control, read-out: Galium plant response rating (0 to 100 scale); for pest or weed control at 500 g/ha: 500 g ai/ha
Method in brief: as §1

[10] = tested on: ragweed (common ragweed, Ambrosia elatior); assay: Test A preemergence; settings: Ambrosia artemisiifolia, pre-emergence, 240 h, preemergence, 0 to 100 scale where 0 is no effect and 100 is complete control, read-out: Ragweed plant response rating; for pest or weed control at 125 g/ha: 125 g ai/ha, visual injury rating, approximately 10 d; for pest or weed control at 500 g/ha: 500 g ai/ha
Method in brief: as §1

[11] = tested on: pigweed (Amaranthus retroflexus); assay: Test A preemergence; settings: Amaranthus retroflexus, pre-emergence, 240 h, preemergence, 0 to 100 scale where 0 is no effect and 100 is complete control, read-out: Pigweed plant response rating; for pest or weed control at 125 g/ha: 125 g ai/ha, visual injury rating, approximately 10 d; for pest or weed control at 500 g/ha: 500 g ai/ha
[12] = tested on: ryegrass, Italian (Italian ryegrass, Lolium multiflorum); assay: Test A preemergence; settings: Lolium multiflorum, pre-emergence, 240 h, preemergence, 0 to 100 scale where 0 is no effect and 100 is complete control, read-out: Ryegrass, Italian plant response rating; for pest or weed control at 125 g/ha: 125 g ai/ha, visual injury rating, approximately 10 d; for pest or weed control at 500 g/ha: 500 g ai/ha
Method in brief: as §1

[13] = tested on: giant foxtail (Setaria faberii); assay: Test A preemergence; settings: Setaria faberi, pre-emergence, 240 h, preemergence, 0 to 100 scale where 0 is no effect and 100 is complete control, read-out: Foxtail, Giant plant response rating; for pest or weed control at 125 g/ha: 125 g ai/ha, visual injury rating, approximately 10 d; for pest or weed control at 500 g/ha: 500 g ai/ha
Method in brief: as §1

Kochia (Kochia scoparia) [14] = assay: Test A preemergence; settings: Bassia scoparia, pre-emergence, 240 h, preemergence, 0 to 100 scale where 0 is no effect and 100 is complete control, read-out: Kochia plant response rating; for pest or weed control at 125 g/ha: 125 g ai/ha, visual injury rating, approximately 10 d; for pest or weed control at 500 g/ha: 500 g ai/ha
Method in brief: as §1

Row | Structure (SMILES) | pest or weed control at 125 g/ha ([1]; postemergence) [%] | pest or weed control at 125 g/ha ([2]; postemergence) [%] | pest or weed control at 125 g/ha ([3]; postemergence) [%] | plant injury at 125 g/ha (corn (Zea mays); postemergence) [%] | pest or weed control at 125 g/ha ([4]; postemergence) [%] | pest or weed control at 125 g/ha ([5]; postemergence) [%] | pest or weed control at 125 g/ha ([6]; postemergence) [%] | pest or weed control at 125 g/ha (Kochia (Kochia scoparia) [7]; postemergence) [%] | plant injury at 125 g/ha [8] [%] | pest or weed control at 125 g/ha ([9]; postemergence) [%] | pest or weed control at 125 g/ha [10] [%] | pest or weed control at 500 g/ha [10] [%] | pest or weed control at 125 g/ha [11] [%] | pest or weed control at 500 g/ha [11] [%] | pest or weed control at 125 g/ha [12] [%] | pest or weed control at 500 g/ha [12] [%] | pest or weed control at 125 g/ha [13] [%] | pest or weed control at 500 g/ha [13] [%] | pest or weed control at 125 g/ha (Kochia (Kochia scoparia) [14]) [%] | pest or weed control at 500 g/ha (Kochia (Kochia scoparia) [14]) [%] | further results
1 | CN1C[C@H](c2ccc(F)c(Br)c2)[C@@H](C(=O)Nc2cccc(F)c2F)C1=O [Compound 1234] | 30 | 20 | 40 | 80 | 80 | 30 | 90 | 40 | 40 | 50 | 40 | 60 | 70 | 90 | 40 | 80 | 100 | 100 | 70 | 80 | pest or weed control at 500 g/ha ([1]; postemergence, 0 to 100 scale, 0 is no effect, 100 is complete control, read-out: Ragweed plant response rating): 30%; pest or weed control at 500 g/ha ([2]; postemergence, 0 to 100 scale, 0 is no effect, 100 is complete control, read-out: Pigweed plant response rating): 50%; pest or weed control at 500 g/ha ([3]; postemergence, 0 to 100 scale, 0 is no effect, 100 is complete control, read-out: Ryegrass, Italian plant response rating): 70%; plant injury at 500 g/ha (corn (Zea mays); 500 g ai/ha, postemergence, 0 to 100 scale, 0 is no effect, 100 is complete control, read-out: Corn plant response rating): 100%; pest or weed control at 500 g/ha ([4]; postemergence, 0 to 100 scale, 0 is no effect, 100 is complete control, read-out: Foxtail, Giant plant response rating): 90%; pest or weed control at 500 g/ha ([5]; postemergence, 0 to 100 scale, 0 is no effect, 100 is complete control, read-out: Blackgrass plant response rating): 60%; pest or weed control at 500 g/ha ([6]; postemergence, 0 to 100 scale, 0 is no effect, 100 is complete control, read-out: Barnyardgrass plant response rating): 90%; pest or weed control at 500 g/ha (Kochia (Kochia scoparia) [7]; postemergence, 0 to 100 scale, 0 is no effect, 100 is complete control, read-out: Kochia plant response rating): 50%; pest or weed control at 500 g/ha ([9]; postemergence, 0 to 100 scale, 0 is no effect, 100 is complete control, read-out: Galium plant response rating): 60%
2 | CSc1ccccc1NC(=O)[C@H]1C(=O)N(C)C[C@@H]1c1ccc2c(c1)OC(F)(F)O2 [Compound 1251] | 0 | 70 | 20 | 20 | 70 | 0 | 80 | 50 | 30 | 50 | 70 | 80 | 90 | 90 | 50 | 60 | 100 | 100 | 80 | 90 | pest or weed control at 500 g/ha ([1]; Postemergence, visual injury, 0 to 100 scale (0 no effect, 100 complete control), approx. 10 d, read-out: Plant response rating, Ragweed): 50%; pest or weed control at 500 g/ha ([2]; Postemergence, visual injury, 0 to 100 scale (0 no effect, 100 complete control), approx. 10 d, read-out: Plant response rating, Pigweed): 80%; pest or weed control at 500 g/ha ([3]; Postemergence, visual injury, 0 to 100 scale (0 no effect, 100 complete control), approx. 10 d, read-out: Plant response rating, Ryegrass, Italian): 40%; Corn plant response rating (crop injury, 0 = no effect, 100 = complete kill) at 500 g/ha (corn (Zea mays); Postemergence, 500 g ai/ha, visual injury, 0 to 100 scale (0 no effect, 100 complete control), approx. 10 d): 80%; pest or weed control at 500 g/ha ([4]; Postemergence, visual injury, 0 to 100 scale (0 no effect, 100 complete control), approx. 10 d, read-out: Plant response rating, Foxtail, Giant): 80%; pest or weed control at 500 g/ha ([5]; Postemergence, visual injury, 0 to 100 scale (0 no effect, 100 complete control), approx. 10 d, read-out: Plant response rating, Blackgrass): 40%; pest or weed control at 500 g/ha ([6]; Postemergence, visual injury, 0 to 100 scale (0 no effect, 100 complete control), approx. 10 d, read-out: Plant response rating, Barnyardgrass): 100%; pest or weed control at 500 g/ha (Kochia (Kochia scoparia) [7]; Postemergence, visual injury, 0 to 100 scale (0 no effect, 100 complete control), approx. 10 d, read-out: Plant response rating, Kochia): 70%; plant injury at 500 g/ha ([8]; Postemergence, 500 g ai/ha, visual injury, 0 to 100 scale (0 no effect, 100 complete control), approx. 10 d, read-out: Plant response rating, Wheat): 60%; pest or weed control at 500 g/ha ([9]; Postemergence, visual injury, 0 to 100 scale (0 no effect, 100 complete control), approx. 10 d, read-out: Plant response rating, Galium): 50%
